Laboratory results from patent US10813914B2, “Composition for controlling microsporidia in fishes and method for controlling microsporidia in fishes using same” (MARUHA NICHIRO CORPORATION, priority 2016, dated 2020).
Marks after values point to notes of the source that are not given here.

Legend:
[1] = test system: microsporidian cyst (beko cyst), beko disease; assay: Prevention test using albendazole (1) (1-3); format: in vivo, “Mojako” (yellowtail larva); settings: 20 mg/kg Bw oral, 6 times/week
Experimental: 1-3. Prevention Test Using Albendazole (1)
(§1) A preliminary test was carried out according to the following procedure:
(§2) Test number: Live 1000 fishes (each initial body weight: 7 g)
(§3) Administration method: oral administration (feed together with spreading agent)
(§4) Drug used: albendazole (compound represented by the above-described formula (3))
(§5) Administration amount: 20 mg/kg Bw (20 mg per kg of fish body weight)
(§6) Administration interval: 6 times/week
A sampling test was carried out according to the following procedure:
Every two weeks from the start of administration, each 20 fishes of “Mojako” were taken out from each test group (100 fishes of “Mojako” at 8 weeks after the start of administration) and each fish was cut into three pieces. It was then visually tested whether the microsporidian cyst (beko cyst) was found in the pieces. When the beko cyst was observed, it was judged as positive and the test results were accumulated. Regarding the beko cyst that could be confirmed with the naked eye, the number was confirmed and the average infection number per one fish was determined.

[2] = Weight, deaths and food intake of Mojako in prevention test 1-3; format: in vivo, “Mojako” (yellowtail larva); design: Weight of Mojako: unit: g; settings: 20 mg/kg Bw oral, 6 times/week
Experimental: as §1, §2, §5, §6

[3] = test system: microsporidian cyst (beko cyst), beko disease; assay: Prevention test using albendazole (2), reduced dose (1-4); format: in vivo, “Mojako” (yellowtail larva); settings: out of 100 fishes at 8 weeks after the start of administration
Experimental: Albendazole administration and a sampling test were carried out in the same procedure as in the above-described 1-3 except that the administration amount of albendazole was reduced to 5 or 10 mg/kg Bw. In the 10 mg/kg administration group, the number of (positive) individuals showing generation of the beko cyst was 0 out of 100 fishes of “Mojako” at 8 weeks after the start of administration. When the administration amount of albendazole was reduced to 5 mg/kg Bw, generation of the beko cyst was confirmed in 3 out of 100 fishes of “Mojako” at 8 weeks after the start of administration.

[4] = test system: microsporidian cyst (beko cyst), beko disease; assay: Prevention test using albendazole (3), 16 weeks administration (1-5); format: in vivo, “Mojako” (yellowtail larva); design: Negative: unit not given here
Experimental: Administration of albendazole was continued for 16 weeks and a sampling test was performed at 2 weeks, 4 weeks, 6 weeks, 8 weeks, 12 weeks and 16 weeks after the start of administration in the same procedure as in the above-described 1-3. The sampling test was carried out in the same procedure also at 4 weeks after the termination of administration of albendazole (20 weeks after the start of administration).

[5] = test system: microsporidian cyst (beko cyst), beko disease; assay: Prevention test using albendazole (4), two administration methods (1-6); format: in vivo, “Mojako” (yellowtail larva)
Experimental: A preliminary test was conducted using two administration methods including different administration amounts of albendazole per one operation and different administration intervals. The preliminary test was performed according to the following procedure:
as §2, §3, §4
Test group 1: 20 mg/kg Bw (20 mg per kg of fish body weight)
Test group 2: 40 mg/kg Bw (40 mg per kg of fish body weight)
Test group 1: 6 times/week (administered for 16 weeks)
Test group 2: 2 times/2 week (administered for 16 weeks)
A sampling test was carried out according to the same procedure as in the above-described 1-5.

[6] = test system: microsporidian cyst (beko cyst), beko disease; assay: Prevention test using albendazole (5) in Kanpachi (1-7); format: in vivo, “Kanpachi” (great amberjack); settings: 40 mg/kg Bw oral, 6 times/week
Experimental: A prevention test against the beko disease by administering albendazole was carried out using “Kanpachi” instead of “Mojako”.
A preliminary test was performed according to the following procedure:
Test number: Live 1000 fishes (each initial body weight: 50 g)
as §3, §4
Administration amount: 40 mg/kg Bw (40 mg per kg of fish body weight)
as §6
Sampling test procedure: same as in the above-described 1-1

beko cyst, beko disease = assay: Treatment test of Mojako infected with beko disease using albendazole (2-1); format: in vivo, “Mojako” (yellowtail larva); settings: 50 mg/kg Bw oral, 6 times/week
Experimental: 2-1: Test by Treating “Mojako” Infected with Beko Disease Using Albendazole
A treatment test was carried out according to the following procedure.
Test number: Live 1000 fishes (test samples showing apparent infection with beko disease according to visual test at the time of vaccine inoculation were selected and tested)
as §3, §4
Administration amount: 50 mg/kg Bw (50 mg per kg of fish body weight)
as §6
Samples of “Mojako” showing irregularities on the body surface with certainty of beko infection in visual test at the time of vaccine inoculation were selected and divided randomly into the control group and the test group.

microsporidia = settings: culture test, Non-Patent Documents 3 to 7; cited from earlier work
[7] = 20 mg/kg Bw oral, 6 times/week, 2 Weeks
[8] = 20 mg/kg Bw oral, 6 times/week, 4 Weeks
[9] = 20 mg/kg Bw oral, 6 times/week, 6 Weeks
[10] = 20 mg/kg Bw oral, 6 times/week, 8 Weeks
[11] = 20 mg/kg Bw oral, 6 times/week, 12 Weeks
[12] = 20 mg/kg Bw oral, 6 times/week, 16 Weeks
[13] = 20 Weeks after start = 4 weeks after termination of 16-week administration

In the case of `CCCSc1ccc2nc(NC(=O)OC)[nH]c2c1` [Albendazole, albendazole], the “Positive fishes (beko cyst) / fishes sampled” value ([1]; 2 week) is reported as 0/20, the “Positive fishes (beko cyst) / fishes sampled” value ([1]; 4 Weeks) is reported as 0/20 and the “Positive fishes (beko cyst) / fishes sampled” value ([1]; 6 weeks, p < 0.05) is reported as 0/20*. The “Positive fishes (beko cyst) / fishes sampled” value ([1]; 8 weeks, p < 0.01) was 0/100**, the “Positive fishes (beko cyst) / fishes sampled” value ([1]; Total of 2-8 weeks, p < 0.01) was 0/160** and the “Positive fishes (beko cyst) / fishes sampled” value ([1]; Total of 2-8 weeks, p < 0.01, listed as albendazole) was “no positive was found”. For the same compound, the “Increase in the number of deaths and decline in food intake with respect to the control group” value ([2]; administration period) was “not recognized”, the “Weight of Mojako” value ([2]; 0 week) was 7 ± 0.53 and the “Weight of Mojako” value ([2]; 2 Weeks) was 18 ± 2.38. For the same compound, the “Weight of Mojako” value ([2]; 4 Weeks) was 29 ± 4.16, the “Weight of Mojako” value ([2]; 6 Weeks) was 51 ± 7.13 and the “Body weight compared with the control group” value ([2]; 8 Weeks) was “significant increase in body weight”. The “Influence on the growth of Mojako” value ([2]; 8 Weeks) was “does not exert a harmful influence on the growth”, the “Weight of Mojako” value ([2]; 8 Weeks) was 73 ± 12.6 and the “Number of (positive) individuals showing generation of the beko cyst” value ([3]; 5 mg/kg Bw oral) was 3. The “Number of (positive) individuals showing generation of the beko cyst” value ([3]; 10 mg/kg Bw oral) was 0, the Infection rate [4, 7] was 0% and the Negative [4, 7] was 20. For the same compound, the Positive [4, 7] was 0, the Infection rate [4, 8] was 0% and the Negative [4, 8] was 20. The Positive [4, 8] was 0, the Negative [4, 9] was 20 and the Positive [4, 9] was 0. The Infection rate ([4]; 20 mg/kg Bw oral, 6 times/week, 6 weeks, p < 0.05) was 0%*, the Negative [4, 10] was 100 and the Positive [4, 10] was 0. The Infection rate ([4]; 20 mg/kg Bw oral, 6 times/week, 8 weeks, p < 0.01) was 0%**, the Negative [4, 11] was 40 and the Positive [4, 11] was 0. It also gave an Infection rate ([4]; 20 mg/kg Bw oral, 6 times/week, 12 Weeks, p < 0.01) of 0%**, a Negative [4, 12] of 46 and a Positive [4, 12] of 0. It also gave an Infection rate ([4]; 20 mg/kg Bw oral, 6 times/week, 16 Weeks, p < 0.01) of 0%**, a Negative [4, 13] of 30 and a Positive [4, 13] of 0. For the same compound, the Infection rate ([4]; 20 Weeks after start = 4 weeks after termination of 16-week administration, p < 0.01) was 0%**, the Negative ([4]; Total until 16 weeks) was 246 and the Positive ([4]; Total until 16 weeks) was 0. For the same compound, the Infection rate ([4]; Total until 16 weeks, p < 0.01) was 0%**, the “Time the effect of preventing infection with microsporidia continues after administration was terminated” value ([4]; after 16 weeks of 20 mg/kg Bw oral, 6 times/week) was “at least 4 weeks” and the “Positive fishes (beko cyst) / fishes sampled” value ([5]; Test group 1: 20 mg/kg Bw, 6 times/week for 16 weeks, 8 Weeks, p < 0.001) was 0/50***. The “Positive fishes (beko cyst) / fishes sampled” value ([5]; Test group 1: 20 mg/kg Bw, 6 times/week for 16 weeks, 16 Weeks, p < 0.0001) was 0/70****, the “Positive fishes (beko cyst) / fishes sampled” value ([5]; Test group 1: 20 mg/kg Bw, 6 times/week for 16 weeks, 24 Weeks (8 weeks after termination), 20 mg/kg) was 16/50 and the “Positive fishes (beko cyst) / fishes sampled” value ([5]; Test group 1: 20 mg/kg Bw, 6 times/week for 16 weeks, 24 Weeks (8 weeks after termination), listed as albendazole, 20 mg/kg) was “did not continue until 8 weeks after termination of administration”. For the same compound, the “Positive fishes (beko cyst) / fishes sampled” value ([5]; Test group 1: 20 mg/kg Bw, 6 times/week for 16 weeks, at administration start time) was 0/20, the “Positive fishes (beko cyst) / fishes sampled” value ([5]; Test group 2: 40 mg/kg Bw, 2 times/2 week for 16 weeks, 8 Weeks, p < 0.001) was 0/50*** and the “Positive fishes (beko cyst) / fishes sampled” value ([5]; Test group 2: 40 mg/kg Bw, 2 times/2 week for 16 weeks, 16 Weeks, p < 0.0001) was 0/70****. The “Positive fishes (beko cyst) / fishes sampled” value ([5]; Test group 2: 40 mg/kg Bw, 2 times/2 week for 16 weeks, 24 Weeks (8 weeks after termination), p < 0.0001, 40 mg/kg) was 1/50****, the “Positive fishes (beko cyst) / fishes sampled” value ([5]; Test group 2: 40 mg/kg Bw, 2 times/2 week for 16 weeks, 24 Weeks (8 weeks after termination), p < 0.0001, listed as albendazole, 40 mg/kg) was “significant suppression of generation of the beko cyst” and the “Positive fishes (beko cyst) / fishes sampled” value ([5]; Test group 2: 40 mg/kg Bw, 2 times/2 week for 16 weeks, at administration start time) was 0/20. The “Positive fishes (beko cyst) / fishes sampled” value ([6]; 8 Weeks, p < 0.01, 40 mg/kg) was 1/50**, the “Positive fishes (beko cyst) / fishes sampled” value ([6]; 8 Weeks, p < 0.01, listed as albendazole, 40 mg/kg) was “significantly suppressed generation of the beko cyst” and the “Positive fishes (beko cyst) / fishes sampled” value ([6]; at administration start time) was 1/20. For the same compound, the Infection rate (beko cyst, beko disease; 10 Days) was 60%, the “Number of positive fishes” value (beko cyst, beko disease; 10 Days, 10 samples) was 6 and the “Number of positive fishes” value (beko cyst, beko disease; 21 Days, 63 samples) was 28. It also gave an Infection rate (beko cyst, beko disease; 21 Days, p < 0.01, 50 mg/kg) of 44.4%**, an Infection rate (beko cyst, beko disease; 21 Days, p < 0.01, listed as albendazole, 50 mg/kg) of 44.4% and an Infection rate (beko cyst, beko disease; at administration start time) of 100%. For the same compound, the “Number of positive fishes” value (beko cyst, beko disease; at administration start time, 10 samples) was 10 and the “Antimicrobial activity against microsporidia” value (microsporidia) was “high antimicrobial activity”.
